Data on one compound can be found in paper PMC6353076, “Impact of CodY protein on metabolism, sporulation and virulence in Clostridioides difficile ribotype 027” (PLoS ONE, 2019).

SMILES strings stand for the structures.

The target of the assay is T1, CdCodY GAF domain (Clostridioides difficile, UniProt Q18BE1).
T1 construct: gene codY; N-terminal GAF domain, CdCodY(1-156); six molecules in the asymmetric unit
Nature of the assay: X-ray crystal structure, […] A. It is filed as binding. The conditions noted are these: GAF-domain effector pocket; contacts N40, Y42, D60, S62, F74, F101, E104, K110, S130.

T1 sequence (Q18BE1 entry or part of it): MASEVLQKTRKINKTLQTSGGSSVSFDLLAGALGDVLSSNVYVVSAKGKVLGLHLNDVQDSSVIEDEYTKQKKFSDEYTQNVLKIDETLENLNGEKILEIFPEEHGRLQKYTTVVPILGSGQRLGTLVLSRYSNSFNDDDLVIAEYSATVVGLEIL

With `CC[C@H](C)[C@H](N)C(=O)O` [isoleucine], the “X-ray crystal structure, 1.7 A” value is on record as “The crystal structure of the GAF domain of CdCodY bound to isoleucine was solved”.
